Measured values taken from the NIST ThermoML archive (doi:10.1016/j.jct.2011.08.015).

Key:
[1] = refractive index (Na D-line) (dimensionless); conditions: 101.33 kPa, Liquid, Standard Abbe refractometry
[2] = for surface tension liquid-gas: Drop volume; for electrical conductivity / viscosity / speed of sound / mass density: 101.33 kPa, Liquid; for electrical conductivity: CRISON model GLP31; for viscosity: Capillary tube (Ostwald / Ubbelohde) method; for speed of sound: Sing-around technique in a fixed-path interferometer; for mass density: Vibrating tube method
[3] = molar heat capacity at constant pressure; conditions: 101.33 kPa, Liquid, Small sample (50 mg) DSC

CCC[n+]1ccccc1.F[B-](F)(F)F [1-propylpyridinium tetrafluoroborate]
Conditions | electrical conductivity, [2] [S/m] | mass density, [2] [kg/m3] | molar heat capacity at constant pressure, [3] [J/K/mol] | refractive index, [1] | speed of sound, [2] [m/s] | surface tension liquid-gas, [2] [mN/m] | viscosity, [2] [mPa·s]
278.15 K | 0.102 | 1267.63 | 352 | – | 1691.9 | 52.55 | 461.4
280.65 K | 0.123 | 1265.78 | 354 | – | 1685.4 | 52.35 | 379.1
283.15 K | 0.151 | 1263.92 | 355 | 1.44855 | 1678.9 | 52.16 | 314.2
285.65 K | 0.181 | 1262.06 | 356 | 1.44789 | 1672.5 | 51.94 | 262.5
288.15 K | 0.215 | 1260.19 | 357 | 1.44723 | 1666.2 | 51.72 | 220.8
290.65 K | 0.252 | 1258.42 | 359 | 1.44655 | 1660 | 51.53 | 186.9
293.15 K | 0.302 | 1256.64 | 361 | 1.44588 | 1653.9 | 51.29 | 160
295.65 K | 0.352 | 1254.86 | 362 | 1.44522 | 1647.8 | 51.15 | 137.7
298.15 K | 0.401 | 1253.08 | 363 | 1.44455 | 1641.7 | 50.97 | 119.5
300.65 K | 0.456 | 1251.3 | 365 | 1.44389 | 1635.7 | 50.73 | 103.8
303.15 K | 0.516 | 1249.52 | 366 | 1.44322 | 1629.8 | 50.51 | 90.75
305.65 K | 0.581 | 1247.73 | 367 | 1.44256 | 1623.8 | 50.32 | 79.75
308.15 K | 0.649 | 1245.95 | 369 | 1.4419 | 1618 | 50.12 | 70.61
310.65 K | 0.722 | 1244.18 | 370 | 1.44123 | 1612.1 | 49.93 | 62.81
313.15 K | 0.799 | 1242.4 | 372 | 1.44057 | 1606.3 | 49.79 | 56.02
315.65 K | 0.881 | 1240.63 | 373 | 1.4399 | 1600.5 | 49.54 | 50.22
318.15 K | 0.965 | 1238.86 | 374 | 1.43924 | 1594.8 | 49.41 | 45.19
320.65 K | 1.07 | 1237.1 | 376 | 1.43859 | 1589 | 49.21 | 40.86
323.15 K | 1.15 | 1235.33 | 377 | 1.43792 | 1583.3 | 49.03 | 36.99
325.65 K | 1.26 | 1233.58 | 378 | 1.43726 | 1577.6 | 48.82 | 33.84
328.15 K | 1.37 | 1231.82 | 380 | 1.43659 | 1572 | 48.7 | 30.72
330.65 K | 1.48 | 1230.07 | 381 | 1.43593 | 1566.3 | 48.46 | 28.09
333.15 K | 1.6 | 1228.32 | 383 | 1.43528 | 1560.7 | 48.3 | 25.81
335.65 K | 1.73 | 1226.57 | 384 | 1.43463 | 1555.1 | 48.1 | 23.78
338.15 K | 1.87 | 1224.83 | 385 | 1.43398 | 1549.5 | 47.86 | 21.97
